By IC50 is commonly meant the concentration needed to halve the response being measured.

From patent US20130041005A1, “PHARMACEUTICAL COMPOSITIONS COMPRISING NEUROPILIN INHIBITORS, AND THEIR USE FOR THE PREVENTION AND/OR TREATMENT OF ANGIOGENIC DISORDERS AND CANCERS” (TRAGEX PHARMA, priority 2011, published 2013) come the findings set out here.

Common to all, as to format: cell-based
Experiment [1] concerns endothelial (HUVEC) cells. Put plainly: Apoptosis assay (Annexin V-FITC/PI), HUVEC. Particulars: IC50 concentration, 72 h (FIG. 2B). How it is done: The level of apoptosis in endothelial (HUVEC) and breast cancer cells (MDA-MB-231) was detected by Annexin V-FITC Apoptosis Detection Kit (ref 556547, BD Biosciences, France) according to the manufacturer's instructions. Briefly, HUVEC and MDA-MB-231 cells were treated separately with DMSO (control) and the compounds of the invention at the concentration corresponding to the IC50, obtained by the proliferation assay, for 72 h. After treatment, all cell including both detached and attached cells were collected, centrifugated at 14000 rpm for 5 min and the apoptotic cells were detected by staining with Annexin V-FITC and (propidium iodide) PI. The cells were resuspended in 100 μl Annexin V binding buffer (10 mM Hepes/NaOH, pH 7.4, 140 mM NaCl, […]) containing 5 μl of Annexin V-FITC and 5 μl of PI (propidium iodide). Samples were gently mixed and incubated for 2 h on ice and in the dark. Viable and apoptotic cell were detected by flow citometry (FACS Calibur Becton Dickinson, France). Apoptotic cells include both the early apoptotic portion (Annexin V-positive) and the late apoptotic portion (Annexin V- and PI-positive). Staurosporine is used as a positive control of apoptosis induction.

Experiment [2] deals with LNCaP. Put plainly: WST-1 proliferation assay, LNCaP. Particulars: Homo sapiens; Prostate LNCaP, 72 h; read-out: Anti-proliferative activity IC50 (μM) ± SD. From the text: (§1) Several cancer cell lines were used: breast cancer cells (MDA-MB-231 (ATTCC® Number HTB-26™), MDA-MB-436 (ATTCC® Number HTB-130™), MDA-MB-438, BT-474 (ATTCC® Number HTB-20™)); cervical cancer cells (HeLa (ATTCC® Number CCL-2™)); colon cancer cells (HCT-116 (ATTCC® Number CCL-247™) and HT-29 (ATTCC® Number HTB-38™)); osteosarcoma cells (U2OS (ATTCC® Number HTB-96™)); pancreas cancer cells (MIA PaCa-2 (ATTCC® Number CRL-1420™) and Panc-10.5 (ATTCC® Number CRL-2547™)); prostate cancer cells (PC-3 (ATTCC® Number CRL-1435™) and LNCaP (ATTCC® Number CRL-1740™)); brain cancer cells (U87 glioblastoma (ATTCC® Number HTB-14™) and SH-SYSY neuroblastoma (ATTCC® Number CRL-2266™)). […]
(§2) After observation of cells under the microscope, old media were removed and the adherent cells washed gently twice with PBS (Phosphate Buffer Saline, —Ca^2+, —Mg^2+, Lonza cat no: 17-512F/12). […] 50 μl of this solution were transferred in 20 μl of isotonic solution and the cells were counted by count cellular (Beckman Coulter). […]
(§3) The cell proliferation WST-1 assay is a colorimetric assay for the quantification of cell proliferation and viability, based on the enzymatic cleavage of the tetrazolium salt WST-1 added to the culture medium, to a water soluble colored formazan dye, detected by absorbance at 450 nm, by mitochondrial succinate-tetrazolium reductase in viable cells. […]
(Formazan colour is commonly taken as a measure of viable cells.)

The subject of experiment [3] is GRANTA-519. Put plainly: WST-1 proliferation assay, GRANTA-519. Particulars: Homo sapiens; Mantle cell lymphoma GRANTA-519; read-out: Anti-proliferative activity IC50 (μM) ± SD. How it is done:
(§4) All the cancer cell lines were maintained in cultured in DMEM GlutaMAX™ (GIBCO Invitrogen, France, cat no 31966047) enhanced with 10% foetal bovine serum (GIBCO Invitrogen, France, cat no 10270-106) and 1% penicillin G/streptomycin (GIBCO Invitrogen, France, cat no 15140-122). Only Panc-10.5 cells were cultivated in RPMI 1640 medium (Gibco) supplemented with 2 mM L-glutamine, 1.5 g/L sodium bicarbonate, 4.5 g/L glucose, 10 mM HEPES, 1 mM sodium pyruvate, 10 Units/ml human insulin, […] (SVF): 15% (75 ml in 500 ml of medium).
(§5) Cells were grown as subconfluent monolayer and cultured in 75 cm^2 flasks at 37° C., 5% CO2 in a humidified atmosphere, and medium was changed every two days. […]
as §3
(§6) After an incubation period of 72 h, at day 4, were prepared the 19 ml medium with reagent WST-1 1 ml ([…]). […] The cells were incubated at 37° C. in a humidified atmosphere of 5% CO2 for 1 h 30 and the absorbance at 450-655 nm was measured by Microplate Manager 5.2 (Bio-Rad).

The test system of experiment [4] is SH-SY5Y. Put plainly: WST-1 proliferation assay, SH-SY5Y. Particulars: Homo sapiens; Brain SH-SY5Y, 72 h; read-out: Anti-proliferative activity IC50 (μM) ± SD.
Description: as §1, §2, §3

For experiment [5], the system named is CEM. Put plainly: WST-1 proliferation assay, CEM. The following applies: Homo sapiens, CCRF-CEM; Acute lymphoblastic leukemia CEM; read-out: Anti-proliferative activity IC50 (μM) ± SD. On the procedure:
as §4, §5, §3, §6

Entries after “also recorded” stand apart in the source; their conditions may differ.

For `Cc1ccc(-c2nc3ccccc3[nH]2)cc1NC(=S)NC(=O)c1ccc2c(c1)OCCO2` [Compound 1, N-[5-(1H-benzimidazol-2-yl)-2-methylphenyl]-N′-(2,3-dihydro-1,4-benzodioxin-6-ylcarbonyl)thiourea], the “induction of apoptosis in endothelial cells” value in experiment [1] is recorded as “induced the apoptosis; also recorded: induction of apoptosis”. Also, the IC50 in experiment [2] was found to be 1.4 ± 0.13 µM; in experiment [3], 1 µM; in experiment [4], 0.4 ± 0.03 µM; in experiment [5] it was 0.5 ± 0.01 µM.

Take `O=C(NC(=S)Nc1cccc(-c2nc3ccccc3[nH]2)c1)c1ccc2c(c1)OCCO2` [Compound 2, N-[3-(1H-benzimidazol-2-yl)phenyl]-N′-(2,3-dihydro-1,4-benzodioxin-6-ylcarbonyl)thiourea]: the “induction of apoptosis in endothelial cells” value in experiment [1] is given as “induced the apoptosis; also recorded: induction of apoptosis”. Further, the IC50 in experiment [2] is 1.3 ± 0.15 µM; in experiment [3] it was 0.5 ± 0.02 µM; in experiment [4], 0.05 ± 0.04 µM; in experiment [5], 0.3 ± 0.04 µM.
